Laboratory results reported in ChEMBL document CHEMBL1201862, “PubChem BioAssay data set” (2004).
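Where inhibition never reached the appropriate level, the endpoint shown equals the highest concentration tested. Otherwise, values were interpolated linearly from a five-concentration, 48-hour dose response in 96-well plates. GI50 marks 50% less growth.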 Active and inactive are the calls of the source. Rule as the data show it: active = GI50 up to about 1.1 µM and inactive = higher.

Tests used:
Experiment in all cases: NCI anticancer screen, dose series, 48 h
LOX IMVI = system: LOX IMVI
M14 = system: M14
SK-MEL-2 = system: SK-MEL-2
HT-29 = system: HT-29
SW-620 = system: SW-620
COLO 205 = system: COLO 205
SNB-75 = system: SNB-75
OVCAR-4 = system: OVCAR-4
MOLT-4 = system: MOLT-4
SNB-19 = system: SNB-19
U-251 = system: U-251
ACHN = system: ACHN
SN12C = system: SN12C
UO-31 = system: UO-31
A549 = system: A549
Malme-3M = system: Malme-3M
UACC-62 = system: UACC-62
EKVX = system: EKVX
K562 = system: K562

Measured: GI50

COc1ccc2nc3ccc(OC)cc3c([S+]([O-])CCCl)c2c1 (stereo unspecified)
inactive: LOX IMVI 2.4 µM | M14 3.52 µM | SK-MEL-2 17.7 µM | HT-29 2.04 µM | SW-620 3.3 µM | COLO 205 1.77 µM | SNB-75 17.8 µM | OVCAR-4 5.05 µM | MOLT-4 2.82 µM | SNB-19 22.5 µM | U-251 14.5 µM | ACHN 2.18 µM | SN12C 1.94 µM | UO-31 2.28 µM | A549 20.9 µM | Malme-3M 1.69 µM | UACC-62 15.8 µM | EKVX 10.5 µM

C[S+](C)([O-])=Nn1c(=O)n2n(c1=O)[C@H]1CC[C@@H]2C1
inactive: LOX IMVI > 100 µM | M14 > 100 µM | SK-MEL-2 > 100 µM | HT-29 > 100 µM | SW-620 > 100 µM | COLO 205 > 100 µM | SNB-75 > 100 µM | MOLT-4 > 100 µM | SNB-19 > 100 µM | U-251 > 100 µM | K562 > 100 µM | ACHN > 100 µM | UO-31 > 100 µM | A549 > 100 µM | Malme-3M > 100 µM | UACC-62 > 100 µM | EKVX > 100 µM

CN(C)c1ccc(N2C(=S)SC(=N\c3ccccc3)/C2=N/c2ccccc2)cc1
inactive: M14 > 100 µM | SK-MEL-2 > 100 µM | COLO 205 > 100 µM | SNB-75 > 100 µM | OVCAR-4 > 100 µM | MOLT-4 > 10 µM | SNB-19 > 100 µM | U-251 > 100 µM | K562 > 100 µM | SN12C > 100 µM | UO-31 > 100 µM | Malme-3M > 100 µM | UACC-62 > 100 µM

CC(NC(C#N)CC12CC3CC(CC(C3)C1)C2)c1ccccc1 (stereo unspecified)
inactive: LOX IMVI 17.8 µM | M14 54.8 µM | HT-29 31.3 µM | SW-620 54.8 µM | COLO 205 38.1 µM | MOLT-4 27.9 µM | SNB-19 > 100 µM | U-251 42.2 µM | K562 23.1 µM | ACHN 47.6 µM | UO-31 77.8 µM | A549 > 100 µM | Malme-3M > 100 µM | UACC-62 84.3 µM | EKVX > 100 µM

CCC1(c2ccccc2)C(=O)N=C(c2ccccc2)N1CCc1ccccc1 (stereo unspecified)
inactive: LOX IMVI > 100 µM | M14 > 100 µM | SK-MEL-2 > 100 µM | HT-29 > 100 µM | SW-620 > 100 µM | COLO 205 > 100 µM | SNB-75 > 100 µM | OVCAR-4 > 100 µM | MOLT-4 > 100 µM | SNB-19 > 100 µM | U-251 > 100 µM | K562 > 100 µM | ACHN > 100 µM | SN12C > 100 µM | UO-31 > 100 µM | A549 > 100 µM | Malme-3M > 100 µM | UACC-62 > 100 µM | EKVX > 100 µM

CC(C)c1ccccc1SCc1cc(=O)cc(CSc2ccccc2C(C)C)o1
inactive: LOX IMVI 26.8 µM | M14 20.2 µM | SK-MEL-2 17.4 µM | HT-29 19.8 µM | SW-620 34.2 µM | COLO 205 37.2 µM | SNB-75 19.4 µM | OVCAR-4 19.5 µM | MOLT-4 22.6 µM | SNB-19 32.7 µM | U-251 22 µM | K562 48.1 µM | ACHN 32.6 µM | UO-31 27.4 µM | A549 19.7 µM | Malme-3M 25.2 µM | UACC-62 16.7 µM | EKVX 19.3 µM

CCOC(=O)Oc1ccc(C(CNC(C)C)OC(=O)OCC)cc1OC(=O)OCC (stereo unspecified)
inactive: LOX IMVI > 100 µM | M14 > 100 µM | SK-MEL-2 > 100 µM | HT-29 > 100 µM | SW-620 > 100 µM | COLO 205 > 100 µM | SNB-75 > 100 µM | OVCAR-4 65.5 µM | MOLT-4 96.8 µM | SNB-19 > 100 µM | U-251 > 100 µM | K562 > 100 µM | ACHN > 100 µM | SN12C > 100 µM | UO-31 43.4 µM | A549 > 100 µM | Malme-3M > 100 µM | UACC-62 > 100 µM | EKVX > 100 µM

N/N=C1\C(=O)N(c2ccc(Cl)c(Cl)c2)C(=O)C1C(=O)Nc1ccc(Cl)c(Cl)c1 (stereo unspecified)
inactive: M14 > 100 µM | SK-MEL-2 50.4 µM | HT-29 49.9 µM | SW-620 91.4 µM | SNB-75 > 100 µM | OVCAR-4 80.4 µM | MOLT-4 42.4 µM | SNB-19 28.2 µM | U-251 31.1 µM | K562 34.8 µM | ACHN 43.2 µM | SN12C 51.5 µM | UO-31 19.8 µM | A549 42.9 µM | Malme-3M > 100 µM | UACC-62 51.4 µM | EKVX 89.1 µM
